Measurements from ChEMBL document CHEMBL5705887, “Distinct concentration-dependent effects of the polo-like kinase 1-specific inhibitor GSK461364A, including differential effect on apoptosis” (Cancer Res, 2009).
Activity calls are given as the source filed them. The rule behind the calls is not given here.

Columns and labels:
PC-3 [1] = test: Antiproliferative activity against human PC-3 cells assessed as growth inhibition incubated for 72 hrs by celltiter-glo assay; type: functional
A549 [2] = test: Antimitotic activity against human A549 cells assessed as cell cycle block in G2-M phase measuring by accumulation of 4N DNA content at 10 nmol/L incubated for 24 hrs by PI staining based flow cytometric analysis; type: functional
[3] = molecular target: Serine/threonine-protein kinase PLK3 (Homo sapiens) (UniProt Q9H4B4); test: Inhibition of N-terminal his6-tagged recombinant human PLK3 (19 to 301 residues) expressed in baculovirus Sf21 insect cells at 10 uM relative to control
OVCAR-8 = test: Antiproliferative activity against human OVCAR-8 cells assessed as growth inhibition incubated for 72 hrs by celltiter-glo assay; type: functional
Panc 02.03 = test: Antiproliferative activity against human Panc 02.03 cells assessed as viable cell signal at maximum growth inhibition incubated for 72 hrs by celltiter-glo assay relative to control; type: functional
COLO 205 = test: Antitumor activity against human COLO 205 cells xenografted in Nude mouse assessed as tumor regression at 50 mg/kg, ip administered for 12 days; type: functional, organism-based; settings: time 12.0 day
SK-OV-3 = test: Antiproliferative activity against human SK-OV-3 cells assessed as of viable cell signal at minimum maximum cell growth incubated for 72 hrs by celltiter-glo assay relative to control; type: functional
PC-3 [4] = test: Antiproliferative activity against human PC-3 cells assessed as of viable cell signal at minimum maximum cell growth incubated for 72 hrs by celltiter-glo assay relative to control; type: functional
NCI-N87 [5] = test: Antiproliferative activity against human NCI-N87 cells assessed as growth inhibition incubated for 72 hrs by celltiter-glo assay; type: functional
HCC1937 = test: Antiproliferative activity against human HCC1937 cells assessed as growth inhibition incubated for 72 hrs by celltiter-glo assay; type: functional
ZR-75-1 = test: Growth inhibition of human ZR-75-1 cells assessed as viable cells at 250 nmol/L measured immediately by celltiter-glo assay; type: functional; settings: read-out: Activity
HT-29 = test: Antiproliferative activity against human HT-29 cells assessed as of viable cell signal at minimum maximum cell growth incubated for 72 hrs by celltiter-glo assay relative to control; type: functional
SK-MEL3 = test: Antiproliferative activity against human SK-MEL3 cells assessed as of viable cell signal at minimum maximum cell growth incubated for 72 hrs by celltiter-glo assay relative to control; type: functional
Raji = test: Antiproliferative activity against human Raji cells assessed as of viable cell signal at minimum maximum cell growth incubated for 72 hrs by celltiter-glo assay relative to control; type: functional
SJSA-1 [6] = test: Antiproliferative activity against human SJSA-1 cells assessed as viable cell signal at maximum growth inhibition incubated for 72 hrs by celltiter-glo assay relative to control; type: functional
HN5 = test: Antiproliferative activity against human HN5 cells assessed as viable cell signal at maximum growth inhibition incubated for 72 hrs by celltiter-glo assay relative to control; type: functional
SJSA-1 [7] = test: Antiproliferative activity against human SJSA-1 cells assessed as growth inhibition incubated for 72 hrs by celltiter-glo assay; type: functional
RKO = test: Antiproliferative activity against human RKO cells assessed as growth inhibition incubated for 72 hrs by celltiter-glo assay; type: functional
BT-474 = test: Antiproliferative activity against human BT-474 cells assessed as viable cell signal at maximum growth inhibition incubated for 72 hrs by celltiter-glo assay relative to control; type: functional
NCI-H1155 = test: Antiproliferative activity against human NCI-H1155 cells assessed as growth inhibition incubated for 72 hrs by celltiter-glo assay; type: functional
HCC1954 = test: Antiproliferative activity against human HCC1954 cells assessed as viable cell signal at maximum growth inhibition incubated for 72 hrs by celltiter-glo assay relative to control; type: functional
K562 = test: Antiproliferative activity against human K562 cells assessed as growth inhibition incubated for 72 hrs by celltiter-glo assay; type: functional
ASPC1 = test: Antiproliferative activity against human ASPC1 cells assessed as of viable cell signal at minimum maximum cell growth incubated for 72 hrs by celltiter-glo assay relative to control; type: functional
MDA-MB-453 = test: Antiproliferative activity against human MDA-MB-453 cells assessed as viable cell signal at maximum growth inhibition incubated for 72 hrs by celltiter-glo assay relative to control; type: functional
NCI-N87 [8] = test: Antiproliferative activity against human NCI-N87 cells assessed as of viable cell signal at minimum maximum cell growth incubated for 72 hrs by celltiter-glo assay relative to control; type: functional
[9] = molecular target: PAS domain-containing serine/threonine-protein kinase (Homo sapiens) (UniProt Q96RG2); test: Inhibition of recombinant human PASK at 10 uM relative to control
[10] = test system: Fibroblast growth factor receptor 1 (Homo sapiens), P11362 [V561M]; test: Inhibition of N-terminal his6-tagged recombinant human FGFR1 V561M mutant (456 to 765 residues) at 10 uM relative to control
SW-620 [11] = test: Antiproliferative activity against human SW620 cells assessed as of viable cell signal at minimum maximum cell growth incubated for 72 hrs by celltiter-glo assay relative to control; type: functional
RPMI-8226 = test: Antiproliferative activity against human RPMI-8226 cells assessed as growth inhibition incubated for 72 hrs by celltiter-glo assay; type: functional
Jurkat = test: Antiproliferative activity against human Jurkat cells assessed as viable cell signal at maximum growth inhibition incubated for 72 hrs by celltiter-glo assay relative to control; type: functional
A2780 = test: Antiproliferative activity against human A2780 cells assessed as growth inhibition incubated for 72 hrs by celltiter-glo assay; type: functional
MCF7 = test: Antiproliferative activity against human MCF7 cells assessed as of viable cell signal at minimum maximum cell growth incubated for 72 hrs by celltiter-glo assay relative to control; type: functional
PANC-08-13 = test: Antiproliferative activity against human PANC-08-13 cells assessed as growth inhibition incubated for 72 hrs by celltiter-glo assay; type: functional
SW480 = test: Antiproliferative activity against human SW480 cells assessed as viable cell signal at maximum growth inhibition incubated for 72 hrs by celltiter-glo assay relative to control; type: functional
SK-MEL-28 = test: Antiproliferative activity against human SK-MEL-28 cells assessed as viable cell signal at maximum growth inhibition incubated for 72 hrs by celltiter-glo assay relative to control; type: functional
LoVo = test: Antiproliferative activity against human LoVo cells assessed as growth inhibition incubated for 72 hrs by celltiter-glo assay; type: functional
Calu-3 = test: Antiproliferative activity against human Calu-3 cells assessed as of viable cell signal at minimum maximum cell growth incubated for 72 hrs by celltiter-glo assay relative to control; type: functional
SW-620 [12] = test: Antiproliferative activity against human SW620 cells assessed as growth inhibition incubated for 72 hrs by celltiter-glo assay; type: functional
A-431 = test: Antiproliferative activity against human A-431 cells assessed as viable cell signal at maximum growth inhibition incubated for 72 hrs by celltiter-glo assay relative to control; type: functional
NCI-H727 = test: Antiproliferative activity against human NCI-H727 cells assessed as viable cell signal at maximum growth inhibition incubated for 72 hrs by celltiter-glo assay relative to control; type: functional
A549 [13] = test: Antiproliferative activity against human A549 cells assessed as of viable cell signal at minimum maximum cell growth incubated for 72 hrs by celltiter-glo assay relative to control; type: functional

Serine/threonine-protein kinase PLK3 (Homo sapiens), sequence (Q9H4B4 whole entry, looked up, the tested form may be a part): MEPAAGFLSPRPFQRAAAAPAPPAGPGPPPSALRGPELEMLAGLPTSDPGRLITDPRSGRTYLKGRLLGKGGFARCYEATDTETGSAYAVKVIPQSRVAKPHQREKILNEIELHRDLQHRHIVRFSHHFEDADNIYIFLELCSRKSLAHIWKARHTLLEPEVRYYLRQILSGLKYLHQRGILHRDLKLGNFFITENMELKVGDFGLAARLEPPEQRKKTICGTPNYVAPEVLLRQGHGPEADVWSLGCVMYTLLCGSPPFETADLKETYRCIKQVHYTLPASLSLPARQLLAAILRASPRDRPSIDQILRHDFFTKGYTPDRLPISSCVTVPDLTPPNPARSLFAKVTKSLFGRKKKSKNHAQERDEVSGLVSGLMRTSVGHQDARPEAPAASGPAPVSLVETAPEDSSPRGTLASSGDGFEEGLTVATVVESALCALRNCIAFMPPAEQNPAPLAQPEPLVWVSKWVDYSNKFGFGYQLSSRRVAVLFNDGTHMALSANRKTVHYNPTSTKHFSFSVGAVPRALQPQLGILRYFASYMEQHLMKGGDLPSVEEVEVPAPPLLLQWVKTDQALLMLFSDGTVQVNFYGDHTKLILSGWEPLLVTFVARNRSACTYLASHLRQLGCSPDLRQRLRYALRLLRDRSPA
Fibroblast growth factor receptor 1 (Homo sapiens), P11362 [V561M], sequence (P11362 whole entry V561M, the tested form may be a part): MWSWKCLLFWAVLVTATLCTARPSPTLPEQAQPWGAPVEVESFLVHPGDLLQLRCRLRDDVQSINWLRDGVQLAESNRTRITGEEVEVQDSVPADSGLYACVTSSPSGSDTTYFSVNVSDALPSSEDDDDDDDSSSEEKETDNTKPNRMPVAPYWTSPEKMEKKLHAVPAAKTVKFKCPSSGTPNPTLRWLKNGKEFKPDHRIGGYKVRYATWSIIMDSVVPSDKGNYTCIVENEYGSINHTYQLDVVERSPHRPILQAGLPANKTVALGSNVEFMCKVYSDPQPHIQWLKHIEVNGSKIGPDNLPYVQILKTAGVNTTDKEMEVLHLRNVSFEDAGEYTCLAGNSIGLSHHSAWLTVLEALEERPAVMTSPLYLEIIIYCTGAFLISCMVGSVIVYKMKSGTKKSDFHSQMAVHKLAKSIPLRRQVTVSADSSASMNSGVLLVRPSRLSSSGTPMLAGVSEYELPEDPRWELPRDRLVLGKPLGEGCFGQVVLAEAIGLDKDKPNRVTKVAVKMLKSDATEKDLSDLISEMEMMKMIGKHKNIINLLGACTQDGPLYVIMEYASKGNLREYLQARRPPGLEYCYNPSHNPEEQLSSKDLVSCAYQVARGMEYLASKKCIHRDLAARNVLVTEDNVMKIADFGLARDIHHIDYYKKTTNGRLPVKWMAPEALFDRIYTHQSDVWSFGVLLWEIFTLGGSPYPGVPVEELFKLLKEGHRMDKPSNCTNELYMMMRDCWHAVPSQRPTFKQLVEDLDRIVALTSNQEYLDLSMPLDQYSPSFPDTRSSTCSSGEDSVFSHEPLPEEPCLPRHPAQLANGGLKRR
PAS domain-containing serine/threonine-protein kinase (Homo sapiens), sequence (Q96RG2 whole entry, the tested form may be a part): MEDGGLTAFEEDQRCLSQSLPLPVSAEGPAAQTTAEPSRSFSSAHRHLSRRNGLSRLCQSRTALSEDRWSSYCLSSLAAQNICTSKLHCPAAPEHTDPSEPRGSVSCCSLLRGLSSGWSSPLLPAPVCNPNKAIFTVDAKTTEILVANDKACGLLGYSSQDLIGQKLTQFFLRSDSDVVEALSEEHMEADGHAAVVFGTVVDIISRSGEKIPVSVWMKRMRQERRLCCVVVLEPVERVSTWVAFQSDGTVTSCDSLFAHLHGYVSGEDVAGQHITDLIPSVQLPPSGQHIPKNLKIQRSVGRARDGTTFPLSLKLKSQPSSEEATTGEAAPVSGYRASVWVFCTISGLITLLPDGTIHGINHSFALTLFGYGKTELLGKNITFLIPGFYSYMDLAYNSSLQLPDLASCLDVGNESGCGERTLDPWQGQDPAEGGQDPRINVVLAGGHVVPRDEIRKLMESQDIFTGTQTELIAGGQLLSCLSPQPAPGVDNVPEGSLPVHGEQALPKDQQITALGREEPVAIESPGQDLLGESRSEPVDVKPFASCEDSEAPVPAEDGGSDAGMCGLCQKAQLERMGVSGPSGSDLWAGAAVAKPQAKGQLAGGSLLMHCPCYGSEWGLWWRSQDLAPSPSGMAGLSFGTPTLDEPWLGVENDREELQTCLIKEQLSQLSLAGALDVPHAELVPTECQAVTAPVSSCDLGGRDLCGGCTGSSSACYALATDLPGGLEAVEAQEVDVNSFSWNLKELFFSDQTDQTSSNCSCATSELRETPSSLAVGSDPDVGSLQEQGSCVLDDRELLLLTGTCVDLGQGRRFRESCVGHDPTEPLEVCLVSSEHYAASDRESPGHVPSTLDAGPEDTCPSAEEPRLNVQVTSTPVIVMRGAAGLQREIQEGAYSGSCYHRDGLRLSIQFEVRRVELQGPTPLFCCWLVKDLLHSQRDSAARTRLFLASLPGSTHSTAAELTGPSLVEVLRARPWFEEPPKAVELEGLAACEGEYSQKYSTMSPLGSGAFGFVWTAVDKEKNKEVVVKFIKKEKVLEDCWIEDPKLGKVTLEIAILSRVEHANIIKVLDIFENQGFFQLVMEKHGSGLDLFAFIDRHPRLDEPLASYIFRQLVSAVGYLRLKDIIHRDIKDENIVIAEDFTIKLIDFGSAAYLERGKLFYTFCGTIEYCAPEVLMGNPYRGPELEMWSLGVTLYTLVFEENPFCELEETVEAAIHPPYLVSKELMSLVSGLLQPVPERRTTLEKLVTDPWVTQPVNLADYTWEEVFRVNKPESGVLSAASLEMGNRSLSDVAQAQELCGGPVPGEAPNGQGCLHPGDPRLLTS

For `C[C@@H](Oc1cc(-n2cnc3ccc(CN4CCN(C)CC4)cc32)sc1C(N)=O)c1ccccc1C(F)(F)F` [GSK-461364], the GI50 (PC-3 [1]) was 14700 nM, the Activity (A549 [2]) was “Active” and the inhibition [3] was 64%. For the same molecule, the GI50 (OVCAR-8) was 20.4 nM, the Emax (Panc 02.03) was 420% and the Activity (COLO 205) was “Active”. The Emin (SK-OV-3) was 103.8%, the Emin (PC-3 [4]) was 385.1% and the GI50 (NCI-N87 [5]) was 21.5 nM. It also gave a GI50 (HCC1937) of 4790 nM, a viability at 0.25 µM (ZR-75-1) of 200% and an Emin (HT-29) of 327.7%. The Emin (SK-MEL3) was 112.5%, the Emin (Raji) was 5.1% and the Emax (SJSA-1 [6]) was 791%. For the same molecule, the Emax (HN5) was 812%, the GI50 (SJSA-1 [7]) was 24.4 nM and the GI50 (RKO) was 62.9 nM. It also gave an Emax (BT-474) of 226%, a GI50 (NCI-H1155) of 14.4 nM and an Emax (HCC1954) of 280%. The GI50 (K562) was 19.4 nM, the Emin (ASPC1) was 114% and the Emax (MDA-MB-453) was 489%. The Emin (NCI-N87 [8]) was 321.5%, the inhibition [9] was 63% and the inhibition [10] was 62%. It also gave an Emin (SW-620 [11]) of 54.6%, a GI50 (RPMI-8226) of 22.5 nM and an Emax (Jurkat) of 753%. For the same molecule, the GI50 (A2780) was 28.1 nM, the Emin (MCF7) was 125.4% and the GI50 (PANC-08-13) was 18.9 nM. The Emax (SW480) was 512%, the Emax (SK-MEL-28) was 353% and the GI50 (LoVo) was 12.2 nM. For the same molecule, the Emin (Calu-3) was 115.6%, the GI50 (SW-620 [12]) was 6.6 nM and the Emax (A-431) was 820%. For the same molecule, the Emax (NCI-H727) was 262% and the Emin (A549 [13]) was 124.1%.
